Experimental data from patent publication US20040096855A1, “Genes” (priority 2001, published 2004).
Blank lines part the entries; values can stand above or below the molecule they belong to.

Legend:
[1] = molecular target: cellular Ras; assay: cell-based or functional assay
[2] = test system: WM-266.4 cells; assay: Cell cycle analysis by FACS (propridium iodide); assay type: cell-based, human; details: 96 hours
Method: FIG. 7. Ablation of BRAF, but not CRAF induces apoptosis in melanoma cells. WM-266.4 cells were treated with a BRAF specific siRNA probe (BRAF), or the scrambled control (sBRAF), or a CRAF specific siRNA probe (CRAF), or U0126, or […] (oligo) or left untreated (control) as indicated. The cells were incubated for 96 hours and the cell cycle profile was analysed by FACS, or PARP expression was examined by Western blotting.
Finally, we examined how BRAF ablation affected cell growth, examining the effects on apoptosis in WM-266.4 cells. For these studies, the cells were fixed in 70% ethanol, stained with propridium iodide and their cell cycle profiles were examined by fluorescent activated cell sorting (FACS). Using this analysis, the apoptotic cells appear in the sub-G1 peak. In these cells, spontaneous apoptosis is very low, with less than 1% of the cell appearing in the sub-G1 peak (FIG. 7, table 5). […] We also examined PARP cleavage, a marker of the induction of apoptosis.
WM-266.4 cells were treated with U0126, DMSO, siRNA to BRAF, siRNA to CRAF or the scrambled siRNA control. The cells were incubated for 96 hours and the cells were fixed and stained with propridium iodide for cell cycle analysis by FACS. The proportion of cells in each phase of the cell cycle is shown.

[3] = test system: ERK (WM-266-4/WM-115 cells); details: WM-266-4/WM-115, melanoma; Ras b; B-Raf V599D
[4] = test system: ERK (colo741 cells); details: colo741, colorectal; B-Raf V599E
[5] = test system: ERK (A2058 cells); details: A2058, melanoma; B-Raf V599E
[6] = test system: ERK activity in WM266.4 cells; assay: Active ERK levels by Western blot with ppERK antibody; assay type: cell-based, human; details: 10 μM compound
Method: WM266.4 or A375P cells were treated with 10 μM U0126, 10 μM BAY 43-9006 or DMSO as a control. Equivalent amounts of cellular proteins were resolved on SDS-gels and the levels of active ERK were determined using the ppERK antibody.
FIG. 6. Ablation of BRAF, but not CRAF blocks ERK activity in melanoma cells. WM-266.4 or Colo 829 cells were treated with a BRAF specific siRNA probe (BRAF), or the scrambled control (sBRAF), or a CRAF specific probe (CRAF), or its scrambled control (sCRAF), or oligofectamine (oligo) or left untreated (control) as indicated. The cells were incubated for the times indicated, and the Colo 829 cells were treated for 24hours. The levels of ERK activity in equivalent amounts of cell extract was determined by Western blotting with the ppERK antibody.
In order to validate BRAF as a target in cancer, it is first tested whether the growth of cells that express activated, mutant forms of BRAF required the RAF-MEK-ERK signaling pathway for growth. To this end, melanoma and colorectal cell lines that harbour mutations in the BRAF gene are treated with pharmacological agents that block signaling through this pathway. Two compounds are tested. One is the compound U0126, which is a MEK inhibitor and which therefore uncouples RAF-ERK signaling in cells (Sebolt-Leopold et al., 1999). BAY 43-9006 os also tested. This is an inhibitor of RAF proteins (Lyons et al., 2001). […]

[7] = test system: ERK (Mawi cells); details: colorectal, Ras wt, B-Raf V599E
[8] = test system: WM-266.4 cells; assay: DNA synthesis, [3H]-thymidine incorporation; assay type: cell-based, human; details: 10 μM, 48 hours
Method: FIG. 4. Inhibition of cell growth by pharmacological agents. WM-266.4 cells were incubated in the presence of U0126 (10 μM) or BAY 43-9006 (10 μM) or the vehicle control (DMSO). After 48 hours, DNA synthesis was determined by incubating the cells with [^3H]-thymidine and the levels of thymidine incorporated into the cellular DNA was determined.
(§1) Colo 829 cells are a melanoma cell line that harbours a V599E mutation in the BRAF gene and BE cells are a colorectal line that harbour a G463 mutation in the BRAF gene (Davies et al., 2002). As we have shown, both of these mutations are activating (Davies et al., 2002). Finally, we tested the effects of these inhibitors on DNA synthesis.

[9] = test system: ERK (SK-MEL-28 cells); details: SK-MEL-28, melanoma; Ras b; B-Raf V599E
[10] = test system: Mawi; details: colorectal, Ras wt, B-Raf V599E
Text: (§2) The second approach is to examine the effects of the compound U0126, an inhibitor of MEK1/2, the only known substrates for B-Raf.

[11] = test system: SK-MEL-28; details: SK-MEL-28, melanoma; Ras b; B-Raf V599E
Text: as §2

[12] = test system: WM-266-4/WM-115; details: WM-266-4/WM-115, melanoma; Ras b; B-Raf V599D
Text: as §2

[13] = test system: colo741; details: colo741, colorectal; B-Raf V599E
Text: as §2

[14] = test system: A2058; details: A2058, melanoma; B-Raf V599E
Text: as §2

[15] = test system: NCI-H2087; details: NCI-H2087, NSCLC cell line pair; Ras onc; B-Raf L596V
Text: as §2

[16] = test system: SW620; details: SW620, colorectal; Ras onc; B-Raf wt
Text: as §2

[17] = test system: CHL; details: melanoma, B-Raf wt
Text: as §2

[18] = test system: ERK (CHL cells); details: melanoma, B-Raf wt
[19] = test system: ERK (NCI-H2087 cells); details: NCI-H2087, NSCLC cell line pair; Ras onc; B-Raf L596V
[20] = test system: Colo 829; assay: Inhibition of cell growth, sulphorhodamine B staining; assay type: cell-based, human; details: Colo 829 melanoma cells (BRAF V599E)
Method: as §1
(§3) Cell lines were incubated in the presence of increasing levels of BAY 43-9006 and the levels of cell growth were determined by sulphorhodamine B staining. The IC50 values were determined by non-linear regression analysis and are indicated.

[21] = test system: BE; assay: as above; assay type: cell-based, human; details: BE colorectal cells (BRAF G463 mutation)
Method: as §1, §3

[22] = test system: WM266.4; assay: as above; assay type: cell-based, human; details: WM266.4 melanoma cells (BRAF V599D)

inhibition of growth (percentage of cells that do not incorporate BrdU) after micro-injection of Y13-259; A2058, melanoma, Ras not given, B-Raf V599E [1]: 0% | inhibition of growth (percentage of cells that do not incorporate BrdU) after micro-injection of Y13-259; CaCO2, colorectal, Ras wt, B-Raf wt [1]: 60% | inhibition of growth (percentage of cells that do not incorporate BrdU) after micro-injection of Y13-259; DLD1, colorectal, Ras K13Asp/wt, B-Raf wt [1]: 40% | inhibition of growth (percentage of cells that do not incorporate BrdU) after micro-injection of Y13-259; HCT-116, colorectal, Ras K13 Asp, B-Raf wt [1]: 95% | inhibition of growth (percentage of cells that do not incorporate BrdU) after micro-injection of Y13-259; HMV11-Riken, melanoma, Ras not given, B-Raf wt [1]: 100% | inhibition of growth (percentage of cells that do not incorporate BrdU) after micro-injection of Y13-259; HT29, colorectal, Ras wt, B-Raf V599E [1]: 15% | inhibition of growth (percentage of cells that do not incorporate BrdU) after micro-injection of Y13-259; JW2, colorectal, Ras K12, B-Raf wt [1]: 79% | inhibition of growth (percentage of cells that do not incorporate BrdU) after micro-injection of Y13-259; LS174T, colorectal, Ras K12Asp/wt, B-Raf wt [1]: 84% | inhibition of growth (percentage of cells that do not incorporate BrdU) after micro-injection of Y13-259; LS411N, colorectal, Ras not given, B-Raf V599E (first value) [1]: 0% | inhibition of growth (percentage of cells that do not incorporate BrdU) after micro-injection of Y13-259; LS411N, colorectal, Ras not given, B-Raf V599E (second value) [1]: 0% | inhibition of growth (percentage of cells that do not incorporate BrdU) after micro-injection of Y13-259; Malme, melanoma, Ras not given, B-Raf V599E [1]: 0% | inhibition of growth (percentage of cells that do not incorporate BrdU) after micro-injection of Y13-259; Mawi, colorectal, Ras wt, B-Raf V599E [1]: 5% | inhibition of growth (percentage of cells that do not incorporate BrdU) after micro-injection of Y13-259; NCI-H2087, NSCLC cell line pair, Ras onc, B-Raf L596V [1]: 77% | inhibition of growth (percentage of cells that do not incorporate BrdU) after micro-injection of Y13-259; SK-MEL-28, melanoma, Ras 'b', B-Raf V599E [1]: 4% | inhibition of growth (percentage of cells that do not incorporate BrdU) after micro-injection of Y13-259; SK-Mel2, melanoma, Ras not given, B-Raf wt [1]: 70% | inhibition of growth (percentage of cells that do not incorporate BrdU) after micro-injection of Y13-259; SW480, colorectal, Ras K12, B-Raf wt [1]: 57% | inhibition of growth (percentage of cells that do not incorporate BrdU) after micro-injection of Y13-259; SW620, colorectal, Ras onc, B-Raf wt [1]: 92% | inhibition of growth (percentage of cells that do not incorporate BrdU) after micro-injection of Y13-259; WM-266-4/WM-115, melanoma, Ras 'b', B-Raf V599D [1]: 10% | inhibition of growth (percentage of cells that do not incorporate BrdU) after micro-injection of Y13-259; colo205, colorectal, Ras wt, B-Raf V599E [1]: 3% | inhibition of growth (percentage of cells that do not incorporate BrdU) after micro-injection of Y13-259; colo741, colorectal, Ras not given, B-Raf V599E [1]: 0%
Molecule: monoclonal antibody Y13-259

Molecule: N#CC(=C(/N)Sc1ccccc1N)/C(C#N)=C(\N)Sc1ccccc1N [U0126]
Proportion of events, G1 [2]: 87.5% | Proportion of events, G2/M [2]: 7.8% | Proportion of events, S [2]: 1.3% | Proportion of events, Sub-G1 ([2]; sub-G1 = apoptotic cells): ~3.5% | UO/ERK-inhib [3]: >90% | UO/ERK-inhib [4]: 90% | UO/ERK-inhib [5]: 80% | ERK activity (ppERK Western blot) [6]: strongly suppressed | UO/ERK-inhib [7]: >90% | DNA synthesis ([3H]-thymidine incorporation) [8]: strongly suppressed | UO/ERK-inhib [9]: >90% | U0 inhibit S [10]: 80% | U0 inhibit S [11]: 98% | U0 inhibit S [12]: >99% | U0 inhibit S [13]: 76% | U0 inhibit S [14]: 68% | U0 inhibit S [15]: 56% | U0 inhibit S [16]: 92% | U0 inhibit S [17]: 51% | UO/ERK-inhib [18]: >90% | UO/ERK-inhib [19]: >90%

IC50 [20]: 5.1 µM | IC50, inhibition of cell growth [20]: low micro-molar range
Molecule: CNC(=O)c1cc(Oc2ccc(NC(=O)Nc3ccc(Cl)c(C(F)(F)F)c3)cc2)ccn1 [BAY 43-9006]
IC50 [21]: 5.4 µM | IC50, inhibition of cell growth [21]: low micro-molar range | ERK activity (ppERK Western blot) [6]: strongly suppressed | IC50 [22]: 6.1 µM | IC50 ([22]; listed as BAY 43-9002): ~6.1 µM | DNA synthesis ([3H]-thymidine incorporation) [8]: strongly suppressed
